Test system: A431 cells
Experiment: Fluorescence microscopy of Pan-IR700 in A431 cells
Assay type: cell-based
Details: after 24 h incubation
Protocol: EGFR-expressing A431 cells were used as the target HER1+ cells. […] Cells were grown in RPMI 1640 supplemented with 10% fetal bovine serum and 1% penicillin/streptomycin in tissue culture flasks in a humidified incubator at 37° C. in an atmosphere of 95% air and 5% carbon dioxide. A431 or Balb/3T3/DsRed cells were seeded on cover glass-bottomed dishes and incubated for 24 hours. Pan-IR700 was added to the culture medium at 10 μg/mL and incubated either for 1 hour on ice or 6 hours at 37° C., then cells were washed with PBS. Culture medium was replaced with phenol red-free medium after washing with phosphate buffered saline (PBS).
Fluorescence microscopy was performed as described in Example 2 to detect the antigen-specific localization of IR700.
Reagents. […] The protein concentrations were determined with Coomassie Plus protein assay kit (Pierce Biotechnology) by measuring light absorption at 595 nm (8453 Value System; Agilent Technologies). […] Quenching efficiency (QE) for a particular conjugation is defined as the fluorescence intensity with SDS divided by fluorescence intensity without SDS. […] Fluorescence lifetime measurements. […] Lifetime values and lifetime mapping were calculated to fit fluorescence temporal point-spread functions (TPSFs) as single-exponential models with the Fit TPSF tool. […] Power densities were measured with an optical power meter (PM 100, Thorlabs). […]

For “Pan-IR700: Panitumumab (anti-human EGFR IgG2 MAb) conjugated to IR700; about 3 to 4 IR700 per antibody”, the “cell damage following exposure to NIR light” value was “immediate damage was induced in the cell membranes and lysosomes”.

Reference: patent US12616751B2, “Photosensitizing antibody-fluorophore conjugates” (The USA, as represented by the Secretary, Department of …, priority 2010, dated 2026)
